Data taken from patent US20260055113A1, “HETEROARYL COMPOUNDS FOR THE TREATMENT OF CANCER” (Hoffmann-La Roche Inc., priority 2022, published 2026).

Key:
[1] = Human microsomal stability assay; assay type: in vitro ADME; settings: human liver microsomes 0.5 mg/mL, 1 μM test compound, 37° C., pH 7.4
Procedure: Human liver microsomes (Cat. NO.: 452117, Corning, USA) were preincubated with test compound for 10 minutes at 37° C. in 100 mM potassium phosphate buffer, pH 7.4. The reactions were initiated by adding NADPH regenerating system. The final incubation mixtures contained 1 μM test compound, 0.5 mg/mL liver microsomal protein, 1 mM MgCl2, 1 mM NADP, 1 unit/mL isocitric dehydrogenase and 6 mM isocitric acid in 100 mM potassium phosphate buffer, pH 7.4. After incubation times of 0, 3, 6, 9, 15 and 30 minutes at 37° C., 300 μL of cold ACN (including internal standard) was added to 100 μL incubation mixture to terminate the reaction. Following precipitation and centrifugation, 100 μL supernatant will be taken out and added 300 μL water. The amount of compound remaining in the samples was determined by LC-MS/MS. Controls of no NADPH regenerating system at zero and 30 minutes were also prepared and analyzed. The results were categorized as: low (<7.0 mL/min/kg), medium (7.0-16.2 mL/min/kg) and high (16.2-23.2 mL/min/kg).

CD73 [2] = molecular target: T1, CD73 (Homo sapiens (Human), UniProt P21589); experiment: CD73 cellular assay (MDA-MB-231 cells, malachite readout); assay type: cell-based; settings: AMP substrate, 45 min, read-out: Cellular IC50 against CD73
Procedure: After incubating with compounds for 30 minutes, 40 μL of AMP working solution (200 μM AMP in assay buffer) was added into each well in the assay plate. The assay plate was then incubated in a 5% CO2 incubator (Thermo Fisher Scientific) at 37° C. for 45 min. After the reaction was completed, 50 μL of the supernatants was collected and transferred into a new 384 well plate. 10 μL of Malachite A was added to each well in the assay plate and incubated for 10 minutes. 10 μL of Malachite B was then added to each corresponding well of the plate and incubated for 30 minutes.
Target sequence in this assay (P21589 27-574): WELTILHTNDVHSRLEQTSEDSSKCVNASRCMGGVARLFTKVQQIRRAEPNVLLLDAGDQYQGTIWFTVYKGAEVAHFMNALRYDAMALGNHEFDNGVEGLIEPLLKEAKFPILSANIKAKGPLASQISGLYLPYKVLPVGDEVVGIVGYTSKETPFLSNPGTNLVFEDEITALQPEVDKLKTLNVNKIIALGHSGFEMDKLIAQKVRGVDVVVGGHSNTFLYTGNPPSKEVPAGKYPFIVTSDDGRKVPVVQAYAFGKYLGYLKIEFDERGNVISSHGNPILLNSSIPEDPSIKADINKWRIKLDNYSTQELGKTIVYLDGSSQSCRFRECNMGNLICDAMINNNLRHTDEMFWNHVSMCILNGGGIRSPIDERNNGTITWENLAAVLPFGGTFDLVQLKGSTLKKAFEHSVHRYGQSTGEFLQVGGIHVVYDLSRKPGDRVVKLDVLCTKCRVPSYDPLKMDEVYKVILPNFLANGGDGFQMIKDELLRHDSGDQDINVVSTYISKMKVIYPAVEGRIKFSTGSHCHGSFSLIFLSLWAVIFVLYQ

CD73 [3] = molecular target: T1, CD73; experiment: CD73 potency assay using LC/MS (enzymatic); assay type: biochemical; settings: 0.05 nM recombinant CD73 protein, LC/MS adenosine readout; read-out: Enzymatic IC50 against CD73
Procedure: The purpose of this assay is to identify and characterize inhibitors of CD73 enzymatic activity. […] 10 μL of enzyme working solution (containing 0.05 nM recombinant CD73 protein, 10 mM Tris pH 7.5, 100 mM NaCl, 0.01% BSA, 0.2 mM Octyl glucoside) was added to the assay plate and incubated with compounds for 15 minutes at room temperature. After adding 15 μL of AMP working solution (Containing 10 mM Tris pH 7.5, 100 mM NaCl, 0.01% BSA, 0.2 mM Octyl glucoside, with 1000 μM of AMP final concentration) and incubate for 10 min at room temperature. […] After centrifugation, 75 μL of the mixture was transferred to a new 384-well plate for LC/MS analysis.
Samples from the 384-well plates, were loaded onto an autosampler deck, then injected with ADDA-LC-MS/MS. The aqueous mobile phase is 0.1% formic acid in water. The organic mobile phase is 0.1% formic acid in acetonitrile. Flow rate is maintained at 0.8 mL/minute using Shimadzu pumps. The column is ACE 5 Phenyl, 50×2.1 mm. The analysis was performed on a SCIEX triple quadrupole mass spectrometer operating in positive ion mode. The effluent from the HPLC column was directly introduced into the electrospray ionization (ESI). Multiple reaction monitoring (MRM) is used to determine analyte and internal standard (IS) responses. […] The data is calculated using the peak area ratio (PAR) semi-quantitative method.
Target sequence in this assay (P21589 27-574, species assumed): as the sequence (P21589 27-574) above

CD8+ T cells = experiment: T cell proliferation assay, CD8+ T cells; settings: read-out: CD8+ T cell proliferation EC50; rescue of proliferation under high AMP condition (200 μM AMP), 72 hours
Procedure: (§1) The purpose of this assay is to characterize the potency of inhibitors of CD73 in rescuing adenosine-mediated inhibition of T cell proliferation. CD4+ or CD8+ T cells were isolated from peripheral blood mononuclear cells (PBMCs, HemaCare) by immunomagnetic negative selection using EasySep™ Isolation Kit ([sequence] Technologies) following the supplier's protocol. CD4+ or CD8+ T cells were pelleted by centrifugation at 300 gravitational force (g) for 5 minutes at room temperature and re-suspended in PBS. CellTrace™ Violet staining solution (Invitrogen) was added at 1:5,000 and incubated at 37° C. for 20 minutes, protected from light. […] Cells were then pelleted by centrifugation at 300 g for 5 minutes at room temperature and re-suspended in fresh, pre-warmed complete culture medium. 50 μL of cells were seeded per well in 96 well u-bottom plates. 50 μL of CD3/CD28 beads-containing medium and 50 μL of media containing compounds were added into cells. 50 μL of media containing AMP and EHNA hydrochloride (Sigma-Aldrich) was added into cells at 200 μM and 5 μM final concentration, respectively. Cells were incubated for 72 hours at 37° C. in a 5% CO2 incubator. 200 μL of PBS was then added to each well and cells were centrifuged at 300 g, 4° C. for 10 minutes. […] The supernatant was discarded and cells were re-suspended in 60 μL of cell staining buffer and analyzed on a flow cytometer.

CD4+ T cells = experiment: T cell proliferation assay, CD4+ T cells; settings: read-out: CD4+ T cell proliferation EC50; rescue of proliferation under high AMP condition (200 μM AMP), 72 hours
Procedure: as §1

| CL (h) [1] [mL/min/kg] | IC50 (CD73 [2]) [nM] | IC50 (CD73 [3]) [nM] | Structure (SMILES) | EC50 (CD8+ T cells) [nM] | EC50 (CD4+ T cells) [nM] |
| --- | --- | --- | --- | --- | --- |
| 6.15 | 3.5 | 0.7 | Cn1nc(C2CCC2)c2cc(-c3c[nH]c(=O)[nH]c3=O)nnc21 [Example 39, 5-(3-cyclobutyl-1-methyl-pyrazolo[3,4-c]pyridazin-5-yl)-1H-pyrimidine-2,4-dione] | – | – |
| 6.15 | 3.4 | 0.38 | Cn1nc(O[C@H](c2ccccn2)C(F)(F)F)c2cc(-c3c[nH]c(=O)[nH]c3=O)nnc21 [Example 29A, 5-[1-methyl-3-[(1R)-2,2,2-trifluoro-1-(2-pyridyl)ethoxy]pyrazolo[3,4-c]pyridazin-5-yl]-1H-pyrimidine-2,4-dione] | – | – |
| 9.3 | 1.6 | 0.25 | C[C@@H](c1ccccc1)N(C)c1nn(C)c2nnc(-c3c[nH]c(=O)[nH]c3=O)cc12 [Example 38, 5-[1-methyl-3-[methyl-[(1S)-1-phenylethyl]amino]pyrazolo[3,4-c]pyridazin-5-yl]-1H-pyrimidine-2,4-dione] | – | – |
| 9.85 | 11.4 | 1.94 | Cn1nc(-c2ccnn2Cc2ccccc2)c2cc(-c3c[nH]c(=O)[nH]c3=O)nnc21 [Example 7, 5-[3-(2-benzylpyrazol-3-yl)-1-methyl-pyrazolo[3,4-c]pyridazin-5-yl]-1H-pyrimidine-2,4-dione] | – | – |
| 6.15 | 2.7 | 0.33 | C[C@H](Oc1nn(C)c2nnc(-c3c[nH]c(=O)[nH]c3=O)cc12)c1ccccn1 [Example 26, 5-[1-methyl-3-[(1S)-1-(2-pyridyl)ethoxy]pyrazolo[3,4-c]pyridazin-5-yl]-1H-pyrimidine-2,4-dione] | 3.9 | 5.6 |
| – | 10.4 | 2 | O=c1[nH]cc(-c2cc3c(C4CCC4)noc3nn2)c(=O)[nH]1 [Example 46, 5-(3-cyclobutylisoxazolo[5,4-c]pyridazin-5-yl)-1H-pyrimidine-2,4-dione] | – | – |
| 8.52 | 10.2 | 0.89 | Cn1nc(C2CC2)c2cc(-c3c[nH]c(=O)[nH]c3=O)nnc21 [Example 2, 5-(3-cyclopropyl-1-methyl-pyrazolo[3,4-c]pyridazin-5-yl)-1H-pyrimidine-2,4-dione] | – | – |
| – | 13.3 | 3.88 | CC(C)Oc1nn(C)c2nnc(-c3c[nH]c(=O)[nH]c3=O)cc12 [Example 8, 5-(3-isopropoxy-1-methyl-pyrazolo[3,4-c]pyridazin-5-yl)-1H-pyrimidine-2,4-dione] | – | – |
| 6.15 | 1.6 | 0.15 | Cn1nc(O[C@H](c2ccccc2)C(F)(F)F)c2cc(-c3c[nH]c(=O)[nH]c3=O)nnc21 [Example 30A, 5-[1-methyl-3-[(1R)-2,2,2-trifluoro-1-phenyl-ethoxy]pyrazolo[3,4-c]pyridazin-5-yl]-1H-pyrimidine-2,4-dione] | – | – |
| 6.32 | 4.6 | 0.65 | Cc1nc(C(C)Oc2nn(C)c3nnc(-c4c[nH]c(=O)[nH]c4=O)cc23)cs1 (stereo not drawn) [Example 21, 5-[1-methyl-3-[1-(2-methylthiazol-4-yl)ethoxy]pyrazolo[3,4-c]pyridazin-5-yl]-1H-pyrimidine-2,4-dione] | – | – |
| 6.15 | 8.6 | 2.23 | CN(c1nn(C)c2nnc(-c3c[nH]c(=O)[nH]c3=O)cc12)C1CCCC1 [Example 36, 5-[3-[cyclopentyl(methyl)amino]-1-methyl-pyrazolo[3,4-c]pyridazin-5-yl]-1H-pyrimidine-2,4-dione] | – | – |
| 6.15 | – | – | C[C@H](Oc1nn(C)c2nnc(-c3c[nH]c(=O)[nH]c3=O)cc12)c1ccccc1 [Example 27, 5-[1-methyl-3-[(1S)-1-phenylethoxy]pyrazolo[3,4-c]pyridazin-5-yl]-1H-pyrimidine-2,4-dione] | 3.84 | 4.3 |
